Assays:
Format in all cases: in vivo
Tetranychus urticae = experiment: Insecticidal/acaricidal test, Tetranychus urticae (spider mites - adult), contact; conditions: 72 h, French bean leaf, 3 days, read-out: grading of mortality, TU
In short: (§1)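 Acetone solution diluted in water + 0.01% wetting agent; 500/250/100 ppm. Treat pests and/or host plant/food medium. Read mortality/knockdown day 1–3. Grades: A 80–100% (S. exigua 70–100%), B 50–79% (50–69%), C <50%.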

Myzus persicae = experiment: Insecticidal test, Myzus persicae (aphids), contact; conditions: 72 h, Chinese Cabbage leaf, 3 days, read-out: grading of mortality, MP
In short: as §1

Nilaparvata lugens = experiment: Insecticidal test, Nilaparvata lugens (brown planthopper), contact; conditions: 72 h, Cabbage leaf, 3 days, read-out: grading of mortality, NL
In short: as §1

Musca domestica [1] = experiment: Knockdown test, Musca domestica (houseflies - adults); conditions: cotton wool/sugar, 4 hours, read-out: grading of knockdown, MD/KD
In short: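 Knockdown scores were banded: A 80–100%, B 50–79%, C <50%. Test preparations of 500, 250 or 100 ppm compound were made in acetone, then diluted with water containing 0.01% Lissapol NX, and applied to Musca domestica adults.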

Musca domestica [2] = experiment: Insecticidal test, Musca domestica (houseflies - adults), contact; conditions: 24 h, cotton wool/sugar, 1 day, read-out: grading of mortality, MD
In short: as §1

Blattella germanica = experiment: Insecticidal test, Blattella germanica (cockroach nymphs), residual; conditions: 72 h, plastic pot, 3 days, read-out: grading of mortality, BG
In short: as §1

Heliothis virescens = experiment: whole plant or invertebrate; conditions: in Gossypium hirsutum, 72 h, read-out: grading of mortality, HV
In short: as §1

Spodoptera exigua = experiment: Insecticidal test, Spodoptera exigua (lesser armyworm), residual; conditions: 72 h, cotton leaf, 3 days, read-out: grading of mortality, SE
Protocol: The activity of the Product was determined using a variety of insect and acarine pests. The Product was used in the form of liquid preparations containing 500, 250 or 100 parts per million (ppm) by weight of the Product. The preparations were made by dissolving the Product in acetone and diluting the solutions with water containing 0.01% by weight of a wetting agent sold under the trade name "LISSAPOL" NX until the liquid preparations contained the required concentratio of the Product. "Lissapol" is a Registered Trade Mark.
The test procedure adopted with regard to each pest was basically the same and comprised supporting a number of the pests on a medium which was usually a host plant or a foodstuff on which the pests feed, and treating either or both the pests and the medium with the preparations. The mortality of the pests was then assessed at periods usually varying from one to three days after the treatment.
The results of the tests are given in Table IV for each of the Products, at the rate in parts per million given in the second column as a grading of mortality designated as A, B or C wherein A indicates 80-100% mortality or knockdown (70-100% in the case of Spodoptera exigua), B indicates 50-79% mortality or knockdown (50-69% in the case of Spodoptera exigua) and C indicates less than 50% mortality or knockdown.
In Table IV the pest organism used is designated by a letter code and the pest species, the support medium or food, and the type and duration of test is given in Table III.

Diabrotica balteata = experiment: Insecticidal test, Diabrotica balteata (rootworm larvae), residual; conditions: 72 h, filter paper/maize seed, 3 days, read-out: grading of mortality, DB
In short: as §1

| Compound | mortality at 100 ppm (Tetranychus urticae) [%] | mortality at 100 ppm (Myzus persicae) [%] | mortality at 100 ppm (Nilaparvata lugens) [%] | pest or weed control at 100 ppm (Musca domestica [1]) [%] | mortality at 100 ppm (Musca domestica [2]) [%] | mortality at 100 ppm (Blattella germanica) [%] | mortality at 100 ppm (Heliothis virescens) [%] | mortality at 100 ppm (Spodoptera exigua) [%] | mortality at 100 ppm (Diabrotica balteata) [%] | mortality at 500 ppm (Tetranychus urticae) [%] | mortality at 500 ppm (Myzus persicae) [%] | mortality at 500 ppm (Nilaparvata lugens) [%] | pest or weed control at 500 ppm (Musca domestica [1]) [%] | mortality at 500 ppm (Musca domestica [2]) [%] | mortality at 500 ppm (Blattella germanica) [%] | mortality at 500 ppm (Heliothis virescens) [%] | mortality at 500 ppm (Spodoptera exigua) [%] | mortality at 500 ppm (Diabrotica balteata) [%] |
| --- | --- | --- | --- | --- | --- | --- | --- | --- | --- | --- | --- | --- | --- | --- | --- | --- | --- | --- |
| Fc1ccc(COC=C(c2ccc(OC(F)(F)F)cc2)C(F)(F)F)cc1Oc1ccccc1 [Compound 462, 1,1,1-trifluoro-2-(4-trifluoromethoxyphenyl)-3-(3-phenoxy-4-fluorobenzyloxy)prop-2-ene] | < 50 | < 50 | < 50 | 80 to 100 | 80 to 100 | 80 to 100 | 80 to 100 | 70 to 100 | 50 to 79 |  |  |  |  |  |  |  |  |  |
| OC(COCc1ccc(F)c(Oc2ccccc2)c1)(c1ccc(Br)cc1)C(F)(F)F (stereo not drawn) [Compound 127, 1,1,1-Trifluoro-2-(4-bromophenyl)-3-(3-phenoxy-4-fluorobenzyloxy)propan-2-ol] |  |  |  |  |  |  |  |  |  | < 50 | < 50 | < 50 | 80 to 100 | 50 to 79 | < 50 | < 50 | 50 to 69 | 80 to 100 |
| FC(F)(F)C(COCc1cccc(Oc2ccc(Cl)cc2)c1)c1ccc2c(c1)OCO2 (stereo not drawn) [Compound 32, 1,1,1-Trifluoro-2-(3,4-methylenedioxyphenyl)-3-(3-(4-chlorophenoxy)benzyloxy)propane] |  |  |  |  |  |  |  |  |  | < 50 | 50 to 79 | 80 to 100 | 80 to 100 | 80 to 100 | 50 to 79 | 80 to 100 | 70 to 100 | 80 to 100 |
| FC(F)(F)Oc1ccc(C(Cl)(COCc2cccc(Oc3ccc(Cl)cc3)c2)C(F)(F)F)cc1 (stereo not drawn) [Compound 60, 1,1,1-Trifluoro-2-chloro-2-(4-trifluoromethoxyphenyl)-3-(3-(4-chlorophenoxy)benzyloxy)propane] | < 50 | 50 to 79 | 80 to 100 | < 50 | < 50 | 80 to 100 | 80 to 100 | 70 to 100 | < 50 |  |  |  |  |  |  |  |  |  |
| CCOc1ccc([C@H](CO[C@H](C)c2cccc(Oc3ccccc3)c2)C(F)(F)F)cc1 (racemic) [Compound 256, (2RS)-1,1,1-trifluoro-2-(4-ethoxyphenyl)-3-[(1RS)-1-(3-phenoxyphenyl)ethoxy]propane] |  |  |  |  |  |  |  |  |  | < 50 | 80 to 100 | 80 to 100 | 50 to 79 | 80 to 100 | < 50 | 80 to 100 | < 50 | < 50 |
| Fc1ccc(COCC(F)(c2ccc(Br)cc2)C(F)(F)F)cc1Oc1ccccc1 (stereo not drawn) [Compound 83, 1,1,1,2-Tetrafluoro-2-(4-bromophenyl)-3-(3-phenoxy-4-fluorobenzyloxy)propane] |  |  |  |  |  |  |  |  |  | < 50 | 80 to 100 | 80 to 100 | 80 to 100 | 80 to 100 | 80 to 100 | 80 to 100 | 70 to 100 | 80 to 100 |
| OC(COCc1cccc(Oc2ccccc2)c1)(c1ccc2c(c1)OCO2)C(F)(F)F (stereo not drawn) [Compound 128, 1,1,1-trifluoro-2-(3,4-methylenedioxyphenyl)-3-(3-phenoxybenzyloxy)propan-2-ol] |  |  |  |  |  |  |  |  |  | < 50 | < 50 | < 50 | < 50 | 50 to 79 | < 50 | 80 to 100 | 70 to 100 | 50 to 79 |
| OC(COCc1cccc(Oc2ccc(Cl)cc2)c1)(c1ccc2c(c1)OCO2)C(F)(F)F (stereo not drawn) [Compound 129, 1,1,1-Trifluoro-2-(3,4-methylenedioxyphenyl)-3-(3-(4-chlorophenoxy)benzyloxy)propan-2-ol] |  |  |  |  |  |  |  |  |  | < 50 | 50 to 79 | 80 to 100 | 80 to 100 | 80 to 100 | < 50 | 50 to 79 | 70 to 100 | < 50 |
| CCOc1ccc(C(COCc2cccc(Oc3ccccc3)c2)C(F)(F)F)cc1F (stereo not drawn) [Compound 14, 1,1,1-Trifluoro-2-(3-fluoro-4-ethoxyphenyl)-3-(3-phenoxybenzyloxy)propane] | < 50 | 80 to 100 | 80 to 100 | 80 to 100 | 80 to 100 | 80 to 100 | 80 to 100 | 70 to 100 | 80 to 100 |  |  |  |  |  |  |  |  |  |
| FC(F)(F)Oc1ccc(C(COCc2cccc(Oc3ccccc3)n2)C(F)(F)F)cc1 (stereo not drawn) [Compound 28, 1,1,1-Trifluoro-2-(4-trifluoromethoxyphenyl)-3-(6-phenoxy-2-pyridylmethyloxy)propane] | < 50 | 80 to 100 | 80 to 100 | 80 to 100 | 80 to 100 | 80 to 100 | 80 to 100 | 70 to 100 | 80 to 100 |  |  |  |  |  |  |  |  |  |
| Fc1ccc(COCC(c2ccc(OC(F)(F)F)cc2)C(F)(F)F)cc1Oc1ccccc1 (stereo not drawn) [Compound 25, 1,1,1-Trifluoro-2-(4-trifluoromethoxyphenyl)-3-(3-phenoxy-4-fluorobenzyloxy)propane] | 80 to 100 | 80 to 100 | 80 to 100 | 80 to 100 | 80 to 100 | 80 to 100 | 80 to 100 | 70 to 100 | 80 to 100 |  |  |  |  |  |  |  |  |  |
| CCOc1c(F)cc(C(COCc2cccc(Oc3ccc(Cl)cc3)c2)C(F)(F)F)cc1F (racemic) [Compound 165, (RS)-1,1,1-Trifluoro-2-(3,5-difluoro-4-ethoxyphenyl)-3 (3-(4-chlorophenoxy)benzyloxy)propane] |  |  |  |  |  |  |  |  |  | 80 to 100 | 80 to 100 | 80 to 100 | 80 to 100 | 80 to 100 | 80 to 100 | 80 to 100 | 70 to 100 | 80 to 100 |
| CCOc1ccc(C(COCc2ccc(F)c(Cc3ccccc3)c2)C(F)(F)F)cc1 (stereo not drawn) [Compound 8] |  |  |  |  |  |  |  |  |  | < 50 | 80 to 100 | 80 to 100 | 80 to 100 | 80 to 100 | 80 to 100 | 80 to 100 | 70 to 100 | 80 to 100 |
| CC(C)(C)c1ccc(C(COCc2ccc(F)c(Oc3ccccc3)c2)C(F)(F)F)cc1 (stereo not drawn) [Compound 21, 1,1,1-Trifluoro-2-(4-t-butylphenyl)-3-(3-phenoxy-4-fluorobenzyloxy)propane] |  |  |  |  |  |  |  |  |  | 80 to 100 | 80 to 100 | < 50 | 80 to 100 | 80 to 100 | 50 to 79 | 80 to 100 | 70 to 100 | 80 to 100 |
